Assay results as given in patent publication US20240041832A1, “METHODS AND COMPOSITIONS FOR TREATING EYE DISEASES” (JENIVISION INC., priority 2021, published 2024).
Like-named read-outs stand apart in the source and are kept apart here.

Columns and labels:
[1] = Rabbit pharmacokinetics and ocular tissue distribution, eye-drop to both eyes (Example 1); assay type: in vivo, New Zealand rabbits
Protocol: A retinal bioavailability study was performed on 4,5-dihydro-N-[4-[[4-(1-methylethoxy) phenyl] methyl] phenyl]-1H-imadazol-2-amine (assigned the coded notation JV-DE1). This study provided an indication that the compound formulated in an eye-drop and administered bilaterally to the anterior ocular surface was bioavailable in the retina. This pharmacokinetics and ocular tissue distribution study of JV-DE1 was performed in New Zealand rabbits. Briefly, […] (male) received JV-DE1 via ocular instillation to both eyes at a dose of 0.12 mg/eye. Blood samples (1 mL) were collected at 0, 0.5, 2, 4, 8, and 24 h after single ocular administration to both eyes. At each time point, one animal was euthanized after blood collection and then eye tissue samples were collected from both eyes. Aqueous humor, bulbar conjunctiva, anterior sclera, posterior sclera (in the optic nerve exit region), retina, cornea, ciliary body, and iris were collected and weighed. The samples were then stored in an ultra-low temperature freezer. Drug concentrations in the samples were subsequently determined by the LC-MS/MS method. Results are shown in FIG. 2A (right eye) and FIG. 2B (left eye).
JV-DE1 was widely distributed in the ocular tissues, and with no meaningful difference between the left and right eye, since drug administration was bilateral. JV-DE1 ocular tissue levels were well-maintained over an 8 hour period post-dosing but had declined by 24 hours. The cornea, anterior sclera, and bulbar conjunctiva had the highest levels of JV-DE1 in both eyes, whereas JV-DE1 levels were lower in those structures located within the globe. The most significant finding was the unexpectedly high levels of JV-DE1 in the retina and the posterior sclera, which underlies and supports the retina.

[2] = Rabbit bio-disposition, eye-drop to one eye (OD) (Example 2); assay type: in vivo, New Zealand rabbits
Protocol: In order to verify that drug delivery of JV-DE1 was essentially confined to ocular redistribution other than via the blood circulation following contact of the eye-drop with the anterior segment ocular surface tissues, a monocular drug application study was performed. JV-DE1 was formulated in 2.4% CrEL and 0.2% glycerol in pH 7.6 TBS. CrEL is polyoxyl 35 castor oil. Other names for polyoxyl 35 castor oil include macrogolglycerol ricinoleate, PEG-35 castor oil, and […]. Briefly, for the bio-disposition experiment, JV-DE1 was administered to one eye (OD) via ocular instillation to said eye at a dose of 0.12 mg/eye. Blood samples (1 mL) and were collected at 0, 0.5, 2, 6, and 24 h after a single eye-drop ocular administration. At each of the above time points, one animal was euthanized after blood collection and selected eye tissue samples were collected from both eyes. Aqueous humor, bulbar conjunctiva, anterior sclera, posterior sclera (in the optic nerve exit region), retina, cornea, ciliary body, and iris were collected and weighed. The samples were then stored in an ultra-low temperature freezer. JV-DE1 concentrations in the samples were subsequently determined by the LC-MS/MS method.
JV-DE1 was widely distributed in the ocular tissues of the eye (OD) that received the compound. The concentration of JV-DE1 in ocular tissue levels were well-maintained over an 8 hour period post-dosing but had declined by 24 hours. The cornea, anterior sclera, and bulbar conjunctiva had the highest levels of JV-DE1 in the treated eye, which was about 100-fold greater than the JV-DE1 levels in the ciliary body/iris, posterior sclera, and retina. The most significant finding was the unexpected level of JV-DE1 in the vitreous humor. […] JV-DE1 levels in the retina of the contralateral, untreated eye were, however, one-tenth of those in the treated eye. […] Only about 10% achieved the retina by delivery from the bloodstream.

[3] = Biodistribution of JV-DE1 after single periorbital skin administration (Example 3); assay type: in vivo, cynomolgus monkeys; settings: for concentration at 3 h / concentration at 6 h / concentration at 0.5 h / concentration at 24 h: topical; for concentration at 3 h: 160.58 μg/right eye; for concentration at 6 h: 162.23 μg/right eye; for concentration at 0.5 h: 179.12 μg/right eye; for concentration at 24 h: 159.26 μg/right eye
Protocol: An additional experiment on JV-DE1 involving determining its bio-disposition following topical application to the periorbital skin that surrounds the anterior portion of the globe was performed.
JV-DE1 was formulated in medium chain triglyceride (MCT) oil. An amount of about 0.16 mg of JV-DE1 formulation was administered to one eye (OD) by circumferential topical application to the periorbital skin that surrounds the anterior portion of the globe. […] The following representative tissues were collected; upper eyelid, cornea, retina, and vitreous humor. JV-DE1 concentrations in the samples were subsequently determined by the LC-MS/MS method. The results are summarized below in Table 1

vascular IP receptor = vascular IP receptor (Homo sapiens, UniProt P43119); settings: Jones R L et al. (2006); cited from earlier work
PAF receptor = PAF receptor (Homo sapiens, UniProt P25105); settings: Bley K R et al. (2006); cited from earlier work
IP receptor = biological target: T1, IP receptor (Homo sapiens, UniProt P43119); settings: U.S. Pat. No. 9,321,745; cited from earlier work
T1 construct: VEGF release from human immune cells when macrophages were primed with TNFα; endogenous in cells; host or cells: human macrophages primed with TNFα

[4] = 0.5 h, 179.120 μg/right eye periorbital skin
[5] = 3 h, 160.580 μg/right eye periorbital skin
[6] = 6 h, 162.230 μg/right eye periorbital skin
[7] = 24 h, 159.260 μg/right eye periorbital skin

T1 sequence (P43119 whole entry): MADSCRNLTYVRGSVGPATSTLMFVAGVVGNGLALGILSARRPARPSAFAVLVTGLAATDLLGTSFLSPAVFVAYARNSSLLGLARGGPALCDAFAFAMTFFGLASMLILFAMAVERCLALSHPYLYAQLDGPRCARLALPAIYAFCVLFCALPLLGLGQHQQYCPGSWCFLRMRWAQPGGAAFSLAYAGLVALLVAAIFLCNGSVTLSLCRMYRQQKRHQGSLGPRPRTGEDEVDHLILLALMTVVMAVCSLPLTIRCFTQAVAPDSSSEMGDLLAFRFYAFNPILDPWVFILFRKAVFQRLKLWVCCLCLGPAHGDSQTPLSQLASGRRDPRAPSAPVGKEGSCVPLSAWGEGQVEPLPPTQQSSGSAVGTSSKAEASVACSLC
vascular IP receptor, sequence (P43119 whole entry): as above
PAF receptor, sequence (P25105 whole entry): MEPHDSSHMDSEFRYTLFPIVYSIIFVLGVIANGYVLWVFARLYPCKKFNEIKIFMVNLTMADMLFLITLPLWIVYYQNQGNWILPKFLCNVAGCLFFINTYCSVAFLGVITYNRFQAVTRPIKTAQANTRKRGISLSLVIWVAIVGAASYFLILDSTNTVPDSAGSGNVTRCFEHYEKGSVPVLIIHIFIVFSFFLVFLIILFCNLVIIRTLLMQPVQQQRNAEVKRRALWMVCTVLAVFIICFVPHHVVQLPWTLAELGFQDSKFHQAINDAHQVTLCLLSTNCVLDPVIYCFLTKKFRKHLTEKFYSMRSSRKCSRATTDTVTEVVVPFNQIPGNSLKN

drug level delivered to the anterior chamber of the eye as an eye drop ([1]; eye drop): > 1 µg/g | retina distribution after eye-drop ([1]; eye-drop administration): less than 60 ng/g | Cmax ([1]; male, New Zealand, rabbit, plasma, topical or ocular, ocular instillation to both eyes, 0.12 mg/eye, at 0.5 hours post-dose): ~2 ng/mL | plasma clearance at 24 hours post dose ([1]; ocular instillation to both eyes, 0.12 mg/eye): good clearance | Cmax ([2]; New Zealand, rabbit, plasma, topical or ocular, ocular instillation to one eye (OD), 0.12 mg/eye, at 0.5 hours post-dose): 0.95 ng/mL | retina level of contralateral untreated eye relative to treated eye ([2]; OS vs OD): one-tenth | share of drug reaching the retina by delivery from the bloodstream ([2]; monocular eye-drop): about 10% | share of drug reaching the retina by intra-global redistribution of the eye-drop ([2]; monocular eye-drop): 90% | time to complete clearance from plasma ([2]; ocular instillation to one eye (OD), 0.12 mg/eye): ≤ 24 h | levels in cornea, anterior sclera and bulbar conjunctiva relative to ciliary body/iris, posterior sclera and retina ([2]; treated eye (OD)): about 100 fold | % of administered dose, Right cornea [3, 4]: 0.00% | % of administered dose, Right retina [3, 4]: 0.09% | % of administered dose, Right upper eyelid [3, 4]: 0.64% | % of administered dose, Right vitreous humor [3, 4]: 4.67% | % of administered dose, Right cornea [3, 5]: 0.00% | % of administered dose, Right retina [3, 5]: 0.26% | % of administered dose, Right upper eyelid [3, 5]: 1.50% | % of administered dose, Right vitreous humor [3, 5]: 2.91% | % of administered dose, Right cornea [3, 6]: 0.00% | % of administered dose, Right retina [3, 6]: 0.25% | % of administered dose, Right upper eyelid [3, 6]: 0.48% | % of administered dose, Right vitreous humor [3, 6]: 3.13% | % of administered dose, Right cornea [3, 7]: 0.00% | % of administered dose, Right retina [3, 7]: 0.05% | % of administered dose, Right upper eyelid [3, 7]: 0.60% | % of administered dose, Right vitreous humor [3, 7]: 1.79% | Drug Concentration in Plasma ([3]; 24 h, 159.260 μg/right eye periorbital skin, animal 104, LLOQ 0.1 ng/ml): BLQ | drug level in retina at all tested time points ([3]; NIODP 165.30±4.65 μg/eye (OD)): greater than 1000 ng/g | drug level delivered to retina via NIODP ([3]; all tested time points): > 1 µg/g | plasma concentrations ([3]; all time points, LLOQ 0.1 ng/ml): less than 0.3 ng/ml | Cmax ([3]; cynomolgus monkey, plasma, topical or ocular, 0.16 mg, single dose monocular periorbital administration, over the 6 hour post-dose period): 0.13 to 0.26 ng/mL | concentration at 3 h ([3]; cynomolgus monkey, plasma, 3 h, 160.580 μg/right eye periorbital skin, animal 102, read-out: Drug Concentration in Plasma): 0.21 ng/mL | concentration at 6 h ([3]; cynomolgus monkey, plasma, 6 h, 162.230 μg/right eye periorbital skin, animal 103, read-out: Drug Concentration in Plasma): 0.26 ng/mL | concentration at 0.5 h ([3]; cynomolgus monkey, plasma, 0.5 h, 179.120 μg/right eye periorbital skin, animal 101, read-out: Drug Concentration in Plasma): 0.131 ng/mL | concentration at 24 h ([3]; cynomolgus monkey, right cornea, 24 h, 159.260 μg/right eye periorbital skin, read-out: Drug Concentration in Tissue, Right cornea): 5.5 ng/g | concentration at 3 h ([3]; cynomolgus monkey, right cornea, 3 h, 160.580 μg/right eye periorbital skin, read-out: Drug Concentration in Tissue, Right cornea): 27.9 ng/g | concentration at 6 h ([3]; cynomolgus monkey, right cornea, 6 h, 162.230 μg/right eye periorbital skin, read-out: Drug Concentration in Tissue, Right cornea): 45.5 ng/g | concentration at 0.5 h ([3]; cynomolgus monkey, right cornea, 0.5 h, 179.120 μg/right eye periorbital skin, read-out: Drug Concentration in Tissue, Right cornea): 39.6 ng/g | concentration at 24 h ([3]; cynomolgus monkey, right retina, 24 h, 159.260 μg/right eye periorbital skin, read-out: Drug Concentration in Tissue, Right retina): 1620 ng/g | concentration at 3 h ([3]; cynomolgus monkey, right retina, 3 h, 160.580 μg/right eye periorbital skin, read-out: Drug Concentration in Tissue, Right retina): 16700 ng/g | concentration at 6 h ([3]; cynomolgus monkey, right retina, 6 h, 162.230 μg/right eye periorbital skin, read-out: Drug Concentration in Tissue, Right retina): 23900 ng/g | concentration at 0.5 h ([3]; cynomolgus monkey, right retina, 0.5 h, 179.120 μg/right eye periorbital skin, read-out: Drug Concentration in Tissue, Right retina): 9300 ng/g | concentration at 24 h ([3]; cynomolgus monkey, right upper eyelid, 24 h, 159.260 μg/right eye periorbital skin, read-out: Drug Concentration in Tissue, Right upper eyelid): 11600 ng/g | concentration at 3 h ([3]; cynomolgus monkey, right upper eyelid, 3 h, 160.580 μg/right eye periorbital skin, read-out: Drug Concentration in Tissue, Right upper eyelid): 32500 ng/g | concentration at 6 h ([3]; cynomolgus monkey, right upper eyelid, 6 h, 162.230 μg/right eye periorbital skin, read-out: Drug Concentration in Tissue, Right upper eyelid): 7950 ng/g | concentration at 0.5 h ([3]; cynomolgus monkey, right upper eyelid, 0.5 h, 179.120 μg/right eye periorbital skin, read-out: Drug Concentration in Tissue, Right upper eyelid): 26500 ng/g | concentration at 24 h ([3]; cynomolgus monkey, right vitreous humor, 24 h, 159.260 μg/right eye periorbital skin, read-out: Drug Concentration in Tissue, Right vitreous humor): 19 ng/g | concentration at 3 h ([3]; cynomolgus monkey, right vitreous humor, 3 h, 160.580 μg/right eye periorbital skin, read-out: Drug Concentration in Tissue, Right vitreous humor): 7.79 ng/g | concentration at 6 h ([3]; cynomolgus monkey, right vitreous humor, 6 h, 162.230 μg/right eye periorbital skin, read-out: Drug Concentration in Tissue, Right vitreous humor): 3.9 ng/g | concentration at 0.5 h ([3]; cynomolgus monkey, right vitreous humor, 0.5 h, 179.120 μg/right eye periorbital skin, read-out: Drug Concentration in Tissue, Right vitreous humor): 15.2 ng/g | biodistribution via NIODP ([3]; periorbital skin): eyelid≥retina>>cornea≥vitreous humor | time to complete clearance from plasma ([3]; single dose monocular periorbital administration): ≤ 24 h
SMILES: CC(C)Oc1ccc(Cc2ccc(NC3=NCCN3)cc2)cc1 [JV-DE1, 4,5-dihydro-N-[4-[[4-(1-methylethoxy)phenyl]methyl]phenyl]-1H-imadazol-2-amine]
biodistribution dose gradient, eye drops ([1]; eye drops): cornea≥conjunctiva≥anterior sclera≈iris≥ciliary body≥posterior sclera≥aqueous humor≥retina | tissues with detectable compound in contralateral untreated eye (OS) ([2]; monocular eye-drop to OD): detected only in the cornea, posterior sclera, and retina | pA2 (vascular IP receptor): 8.2 | pKi (PAF receptor): 7.9 | VEGF release induced by cicaprost in the presence of TNFα (IP receptor): abolished
